Measurements published in patent US20010046996A1, “Use of a compound for preparing a drug” (priority 2000, published 2001).

Assays:
Type in all cases: in vivo
Lewis rats = assay: EAE (experimental autoimmune encephalomyelitis) rat model for MS, clinical score; conditions: for delay of onset / recovery starts earlier: FIG. 2, versus control
rat = assay: Acute toxicity, rat
Protocol: (§1) The tested substance(B-220), was administered daily with 6 mg/animal, a dose that can be increased since the margin to toxic effects is wide and most likely further reduce the symptoms. It is to be noted that the acute toxicity of the tested substance used according to the present invention is low, which is exemplified with the following: […]

rabbit = assay: Acute toxicity, cutaneous, rabbit
Protocol: as §1

mice = assay: Chronic toxicity on mice; conditions: tested up to 270 days

## Cc1cc2nc3c4ccccc4n(CCN(C)C)c3nc2cc1C [B-220]
Lewis rats; FIG. 1, B-220 daily 6 mg/animal, Interferon-beta daily 3×10^5 U/animal, versus negative control
  reduction of the CNS symptoms (clinical score): 2/3
Lewis rats; 6 mg/animal
  delay of onset: ~2 days
  recovery starts earlier: ~2 days
Lewis rats; 12 mg/animal
  delay of onset: ~4 days
  recovery starts earlier: ~3 days
rat; intravenous
  LD50: > 100 mg/kg bw
  NOEL (No Observable Effect Level): 12.5 mg/kg bw
rat; oral
  LD50: > 800 mg/kg bw
rabbit
  NOEL (No Observable Effect Level): 200 mg/kg bw
mice
  chronic toxicity: has not induced toxicity
